From paper PMC7582672, “Actions of FTY720 (Fingolimod), a Sphingosine-1-Phosphate Receptor Modulator, on Delayed-Rectifier K^+ Current and Intermediate-Conductance Ca^2+-Activated K^+ Channel in Jurkat T-Lymphocytes” (Molecules, 2020)

Molecular target: T1, intermediate-conductance Ca2+-activated K+ channel (IKCa, KCa3.1) (Homo sapiens, UniProt O15554)
T1 construct: gene KCNN4
Assay: cell-attached single-channel recording in Jurkat T-lymphocytes (activator)
Assay type: cell-based

T1 sequence (O15554 whole entry): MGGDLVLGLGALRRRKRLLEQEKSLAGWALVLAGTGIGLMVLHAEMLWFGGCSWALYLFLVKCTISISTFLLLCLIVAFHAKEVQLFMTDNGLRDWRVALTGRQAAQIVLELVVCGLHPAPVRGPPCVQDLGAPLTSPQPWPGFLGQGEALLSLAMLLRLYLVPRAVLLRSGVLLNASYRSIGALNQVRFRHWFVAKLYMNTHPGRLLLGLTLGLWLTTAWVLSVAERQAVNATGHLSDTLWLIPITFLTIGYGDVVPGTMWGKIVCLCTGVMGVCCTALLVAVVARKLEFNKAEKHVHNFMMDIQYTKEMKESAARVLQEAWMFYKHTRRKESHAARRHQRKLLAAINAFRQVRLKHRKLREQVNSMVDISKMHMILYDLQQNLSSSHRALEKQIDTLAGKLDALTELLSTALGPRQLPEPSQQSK

In the case of `Oc1cc2ccccc2c2ccccc12` [9-phenanthrol], the “cell-attached single-channel recording in Jurkat T-lymphocytes (activator)” value is reported as “activity of IKCa channels, which was sensitive to block by TRAM-34 and to stimulation by 9-phenanthrol, was readily detected”.
